Data set [1] is described as follows: plasma concentrations of unchanged terfenadine and acid metabolite formation in subjects. It counts as in vivo.
The conditions of data set [2]: to two primary metabolites; cited from earlier work.
Data set [3] addresses histamine H1-receptor (Homo sapiens, UniProt P35367). The following applies: primary metabolites of terfenadine; cited from earlier work.
Data set [4] concerns patients with impaired hepatic function. Conditions: recommended dose of terfenadine, or antihistaminic amount of acid metabolite.
The mark [5] stands for this setting: cases of hepatic impairment, preliminary information.

Chain of histamine H1-receptor (P35367 whole entry, species assumed): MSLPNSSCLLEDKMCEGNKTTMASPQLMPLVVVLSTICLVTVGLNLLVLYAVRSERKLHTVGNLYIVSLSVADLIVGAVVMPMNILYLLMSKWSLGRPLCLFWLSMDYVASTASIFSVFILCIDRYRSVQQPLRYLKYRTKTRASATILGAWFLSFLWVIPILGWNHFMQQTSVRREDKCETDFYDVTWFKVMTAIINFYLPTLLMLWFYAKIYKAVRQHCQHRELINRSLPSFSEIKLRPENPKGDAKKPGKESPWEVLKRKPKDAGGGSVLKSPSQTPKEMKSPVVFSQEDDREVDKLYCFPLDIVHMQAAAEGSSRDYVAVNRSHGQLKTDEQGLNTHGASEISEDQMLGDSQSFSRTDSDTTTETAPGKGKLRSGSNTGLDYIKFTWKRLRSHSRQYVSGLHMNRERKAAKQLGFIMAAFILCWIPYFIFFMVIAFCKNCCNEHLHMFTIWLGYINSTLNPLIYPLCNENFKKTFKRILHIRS

For `CC(C)(C)c1ccc(C(O)CCCN2CCC(C(O)(c3ccccc3)c3ccccc3)CC2)cc1` (stereo not drawn) [Terfenadine, α-[4-(1,1-dimethylethyl)phenyl]-4-(hydroxydiphenylmethyl)-1-piperidinebutanol], in data set [1] (setting [5]), the “rate of acid metabolite formation” value was “decreased” and the “unchanged terfenadine plasma concentrations” value is recorded as “significant concentrations of unchanged terfenadine can be detected”. Also, the “unchanged terfenadine plasma concentrations” value in data set [1] (subjects with normal hepatic function) is on record as “have not been detected”. For the same compound, the first pass metabolism in data set [2] was 99%.

Consider `OC(c1ccccc1)(c1ccccc1)C1CCNCC1` [dealkylated metabolite], for which, in data set [3], the “activity of metabolite (antihistaminic)” value is “inactive”.

On to `CC(C)(C(=O)O)c1ccc(C(O)CCCN2CCC(C(O)(c3ccccc3)c3ccccc3)CC2)cc1` (stereo not drawn) [terfenadine acid metabolite, 4-[l-hydroxy-4-[4-(hydroxydiphenylmethyl)-1-piperidinyl]butyl]-α,α-dimethyl-benzeneacetic acid], for which, in data set [4], the “cardiac events of QT prolongation and/or ventricular tachycardia” value is on record as “will not experience cardiac events of QT prolongation and/or ventricular tachycardia”.

These data come from patent US6399632B1, “Method of providing an antihistaminic effect in a hepatically impaired patient” (Merrell Pharmaceuticals Inc., priority 1992, dated 2002).
